US20090105324A1, “IMIDAZOLE DERIVATIVES FOR USE AS EDG-1 ANTAGONISTS” (AstraZeneca AB, priority 2006, published 2009)

Target: T1, EDG-1/S1P1 receptor (Homo sapiens, UniProt P21453)
T1 construct: expressed in transfected cells; host or cells: U2OS (human osteogenic sarcoma), EDG-1 Transfluor U2OS WT Clone #37
Experiment: In Vitro Cell Based Receptor Activation Assay-Transfluor Assay
Details: EDG-1 Transfluor U2OS WT Clone #37 cells; beta-arrestin GFP relocalization in presence of S1P
Text: This cell-based assay was designed to assess the ability of small molecule antagonists to inhibit activation of the GPCR S1P1 in the presence of its cognate ligand S1P. The assay used technology initially developed by Norak Biosciences (Xsira Pharmaceutical) and presently owned by Molecular Devices. A human osteogenic sarcoma (U2OS) cell line overexpressing the EDG-1/S1P1) receptor as well as a beta-arrestin/green fluorescent protein (GFP) construct hereafter termed EDG-1 Transfluor U2OS WT Clone #37 was employed.
Using a high content screening approach (Cellomics Arrayscan), receptor activity was measured by assessment of the relocalization of beta-arrestin GFP in response to stimulation of EDG-1 by S1P. Specifically, EDG-1 Transfluor U2OS WT Clone #37 cells were plated at a density of 6250 cells in 40 uL medium per well in 384 well plastic bottomed inicrotiter plates (BD Falcon) and incubated overnight at 37° C./5% CO2. Prior to screening, compounds were dissolved in 100% dimethyl sulfoxide (DMSO) to a final stock concentration of 10 mM. Compounds were then serially diluted at 30× final concentration in EDG-1 Transfluor cell growth medium containing 30% DMSO using the Tecan Genesis instrument. […] Plates were then sealed and analysed on the Cellomics Arrayscan using the GPCR signalling algorithm. EC50 values were then calculated using IDBS ActivityBase software.

T1 sequence (P21453 whole entry): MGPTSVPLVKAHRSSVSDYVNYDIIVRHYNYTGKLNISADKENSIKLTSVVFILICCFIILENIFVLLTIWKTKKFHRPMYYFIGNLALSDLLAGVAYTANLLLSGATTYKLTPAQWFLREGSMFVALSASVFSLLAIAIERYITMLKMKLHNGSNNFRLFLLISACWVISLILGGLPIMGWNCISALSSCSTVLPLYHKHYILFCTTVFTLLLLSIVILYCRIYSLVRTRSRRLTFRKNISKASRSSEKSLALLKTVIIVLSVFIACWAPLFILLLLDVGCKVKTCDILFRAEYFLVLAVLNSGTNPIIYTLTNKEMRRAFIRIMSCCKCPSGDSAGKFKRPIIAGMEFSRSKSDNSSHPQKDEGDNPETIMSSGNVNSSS

EC50: 2120 nM
Structure (SMILES): Cc1cnc(C(Cc2ccccc2)NS(=O)(=O)c2ccc(Cl)cc2)n1C (stereo not shown) [Example 1, 4-Chloro-N-[1-(1,5-dimethyl-1H-imidazol-2-yl)-2-phenylethyl]benzenesulfonamide]
